Results published in article PMC8940841, “A metabolically stable PET tracer for imaging synaptic vesicle protein 2A: synthesis and preclinical characterization of [^18F]SDM-16” (European Journal of Nuclear Medicine and Molecular Imaging, 2021).
Where two headings read alike, the source gives them in different places.

Columns and labels:
SV2A [1] = details: 1TC, cited from earlier work
[2] = Plasma radiometabolite analysis during PET scans; format: in vivo, rhesus monkeys; details: 30 min p.i.
Method: Arterial blood samples were collected during the PET scans to measure the radioactivity in plasma for generation of the metabolite-corrected arterial plasma input function. Plasma radiometabolite analysis was performed using the column-switching method, following a published protocol. Briefly, arterial blood samples were collected at 3-, 8-, 15-, 30-, 60-, 90-, 120-, and 180-min post-injection (p. i.), treated with urea (8 M), filtered, and injected onto a self-packed short column (4.6 × 19 mm) eluting with 1% MeCN in water at a flow rate of 2 mL/min. The sample was then back flushed onto a Gemini-NX column (5 μm, 4.6 mm × 250 mm) eluting with 40% MeCN/60% 0.1 M ammonium formate (pH 6.4) at a flow rate of 1.2 mL/min. The eluent was fraction-collected using an automated spectrum chromatography CF-1 fraction collector. Activity in the whole blood, plasma, filtrated plasma-urea mix, filters, and HPLC fractions were counted with automatic gamma well-counter (Wizard 2, PerkinElmer). The sample recovery rate, extraction efficiency, and HPLC fraction recovery were monitored. The unmetabolized [^18F]SDM-16 parent fraction was determined as the ratio of the sum of radioactivity in fractions containing the parent compound to the total amount of radioactivity collected and fitted with inverted Gamma4 approaches.
[^18F]SDM-16 had higher metabolite-corrected plasma SUV than the other SV2A radiotracers, indicating slower plasma clearance and higher metabolic stability (Fig. 2a). Whole-blood and plasma-input functions were highly consistent between the two animals, with a stable plasma to whole-blood ratio of 0.93 ± 0.13 over the entire 180-min acquisition period (Fig. S1).

[3] = Plasma free fraction (fp) by ultrafiltration; format: in vitro ADME, rhesus monkey; details: monkey, plasma (separated from spiked whole blood)
Method: The unbound fraction of [^18F]SDM-16 in plasma (fp) of rhesus monkey was measured in triplicate using the ultrafiltration method. Briefly, [^18F]SDM-16 solution was added to 3 mL of whole blood. After incubation at ambient temperature for 5 min, the blood sample was centrifuged at 3900 rpm for 5 min. A sample of the supernatant plasma (0.3 mL) was loaded onto the reservoir of a Centrifree® Ultrafiltration device (Merck Millipore Ltd. Tullagreen, Carrigtwohill, Co. Cork, IRELAND) in triplicate and centrifuged at 1228 g for 20 min. The fp value was calculated as the ratio of radioactivity in the filtrate to that in the plasma.

[4] = female rhesus macaques, 1-h voiding model; cited from earlier work
SV2A [5] = molecular target: SV2A (Macaca mulatta, UniProt H9EQH8); details: previously determined; cited from earlier work
SV2A (Macaca mulatta, UniProt H9EQH8), sequence (H9EQH8 1-742): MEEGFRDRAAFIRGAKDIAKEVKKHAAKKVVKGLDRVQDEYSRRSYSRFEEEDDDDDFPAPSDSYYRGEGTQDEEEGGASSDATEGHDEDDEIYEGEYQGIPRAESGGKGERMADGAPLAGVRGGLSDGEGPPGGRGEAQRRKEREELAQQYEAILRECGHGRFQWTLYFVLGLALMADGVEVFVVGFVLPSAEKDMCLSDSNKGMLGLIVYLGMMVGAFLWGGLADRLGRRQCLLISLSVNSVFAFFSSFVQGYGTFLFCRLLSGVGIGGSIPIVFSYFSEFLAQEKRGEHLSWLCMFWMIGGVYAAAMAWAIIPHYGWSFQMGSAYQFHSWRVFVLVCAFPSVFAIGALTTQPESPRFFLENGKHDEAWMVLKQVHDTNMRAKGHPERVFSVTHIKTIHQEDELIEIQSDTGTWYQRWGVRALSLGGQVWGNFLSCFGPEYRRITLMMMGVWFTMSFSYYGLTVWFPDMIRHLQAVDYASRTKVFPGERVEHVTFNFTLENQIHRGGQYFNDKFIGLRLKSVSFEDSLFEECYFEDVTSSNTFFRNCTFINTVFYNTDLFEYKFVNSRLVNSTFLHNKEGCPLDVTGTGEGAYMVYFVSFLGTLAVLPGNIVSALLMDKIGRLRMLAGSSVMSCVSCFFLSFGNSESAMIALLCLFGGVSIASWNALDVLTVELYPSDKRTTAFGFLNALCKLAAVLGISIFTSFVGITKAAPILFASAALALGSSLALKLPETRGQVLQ

[6] = Measurement of lipophilicity (octanol / PBS pH 7.4); format: physicochemical; details: octanol/PBS pH 7.4
Method: The logP of [^18F]SDM-16 was determined by a method modified from previously published procedures. Briefly, an aliquot of […] (10 µCi) of the radioligand was added to a 2-mL microtube containing 0.8 mL of octanol and 0.8 mL of 1 × phosphate buffered saline (1 × PBS, pH 7.4). The mixture was vortexed for 30 s and then centrifuged at 2000 g for 2 min. A subsample of the octanol (0.1 mL) and 1 × PBS (0.5 mL) layers was evaluated with a gamma counter. The major portion of the octanol layer (0.5 mL) was diluted with another 0.3 mL of octanol, mixed with a fresh portion of 0.8 mL of PBS, vortexed, centrifuged, and analyzed as described above. This process was repeated until consistent log P values were obtained, with five consecutive equilibration procedures being performed for each logP measurement. Four separate measurements were performed for [^18F]SDM-16 on different days.

[7] = Free base fraction in plasma by modified Henderson-Hasselbalch equation (Eq. 1); details: Eq. 1, plasma pH 7.4
SV2A [8] = experiment: Brain PET imaging with 1TC kinetic modeling
Method: (§1) A total of 10 PET imaging experiments with [^18F]SDM-16 were performed in rhesus monkeys (Macaca mulatta) according to a protocol approved by the Yale University Institutional Animal Care and Use Committee (IACUC). Four monkeys were studied. […] Body temperature was maintained by a water-jacket heating pad. The animal was attached to a physiological monitor, and vital signs (heart rate, blood pressure, respirations, SPO2, EKG, ETCO2, and body temperature) were continuously monitored. A venous line was inserted in one limb for administration of radiotracer, displacement, and blocking drugs. A catheter was placed in the femoral artery in the other limb for blood sampling. Dynamic PET brain scans were performed on a Focus 220 system (Siemens Medical Solutions, Knoxville, TN, USA) with a reconstructed image resolution of approximately 1.5 mm. After a 9-min transmission scan, the radioligand was injected i.v. over 3 min. by an infusion pump. Dynamic PET scans were performed for 3 h (baseline and blocking scans) or 4 h (displacement scan).
(§2) PET images were reconstructed with built-in corrections for attenuation, normalization, scatter, randoms, and deadtime. PET brain images were registered to the animal’s MR image, which was subsequently registered to a brain atlas to define the regions of interest. Dynamic images were reconstructed using a Fourier rebinning and filtered back projection algorithm. A rhesus monkey brain atlas was used for generation of regions of interest (ROIs) and time − activity curves (TACs) for the following ROIs: amygdala, brain stem, caudate nucleus, centrum semiovale (CS), cerebellum, cingulate cortex, frontal cortex, globus pallidus, hippocampus, insula, nucleus accumbens, occipital cortex, pons, putamen, substantia nigra, temporal cortex, and thalamus.
(§3) Volume of distribution (VT, mL·cm^−3) values and the first-order kinetic rate constants of tracer (K1) were derived through 1-tissue (1T) compartment kinetic modeling with the metabolite-corrected arterial plasma input function, which was calculated as the product of the fitted total plasma curve and the parent radiotracer fraction curve. Nondisplaceable volume of distribution (VND) and SV2A occupancy by LEV was calculated using the Lassen plot [32]. Nondisplaceable binding potential (BPND) values were calculated from VT values using CS as reference region, or the VND derived from the blocking study, i.e., BPND = (VT, ROI − VT, CS)/ VT, CS or BPND = (VT/VND) -1.

[9] = Brain PET imaging with 1TC kinetic modeling; details: rhesus monkey, in vivo
Method: as §1, §2, §3

[10] = conjugate acid; cited from earlier work

Cc1cnccc1CN1C[C@@H](c2cc(F)cc([18F])c2)CC1=O [[^18F]SynVesT-1]
VT (baseline) (SV2A [1]; Amygdala): 24.8 ± 8.5 mL/cm^3 | VT (baseline) (SV2A [1]; Brainstem): 16.3 ± 3.6 mL/cm^3 | VT (baseline) (SV2A [1]; Caudate): 35.0 ± 6.3 mL/cm^3 | VT (baseline) (SV2A [1]; Centrum semiovale): 8.9 ± 2.0 mL/cm^3 | VT (baseline) (SV2A [1]; Cerebellum): 28.9 ± 6.8 mL/cm^3 | VT (baseline) (SV2A [1]; Cingulate cortex): 48.5 ± 8.9 mL/cm^3 | VT (baseline) (SV2A [1]; Frontal cortex): 47.1 ± 9.1 mL/cm^3 | VT (baseline) (SV2A [1]; Globus pallidus): 21.6 ± 4.2 mL/cm^3 | VT (baseline) (SV2A [1]; Hippocampus): 30.1 ± 5.6 mL/cm^3 | VT (baseline) (SV2A [1]; Insular cortex): 46.1 ± 9.2 mL/cm^3 | VT (baseline) (SV2A [1]; Nucleus accumbens): 45.2 ± 7.9 mL/cm^3 | VT (baseline) (SV2A [1]; Occipital cortex): 43.7 ± 10.7 mL/cm^3 | VT (baseline) (SV2A [1]; Putamen): 34.6 ± 4.9 mL/cm^3 | VT (baseline) (SV2A [1]; Temporal cortex): 42.2 ± 10.0 mL/cm^3 | VT (baseline) (SV2A [1]; Thalamus): 34.2 ± 3.0 mL/cm^3 | parent fraction in plasma [2]: 42 ± 13% | fraction unbound at 5 min [3]: 0.43 | effective dose (ED) [4]: 20 µSv/MBq | VND (SV2A [5]): 4.96 mL/cm^3 | logP [6]: 2.32 | fraction present in plasma as free base [7]: 81% | BPND, VND method (SV2A [8]; Amygdala): 4.24 ± 4.05 | BPND, VT(CS) method (SV2A [8]; Amygdala): 1.9 ± 1.1 | K1 (SV2A [8]; Amygdala): 0.56 ± 0.36 mL/cm^3 per min | BPND, VND method (SV2A [8]; Anterior cingulate): 8.44 ± 4.27 | BPND, VT(CS) method (SV2A [8]; Anterior cingulate): 4.1 ± 0.7 | K1 (SV2A [8]; Anterior cingulate): 1.05 ± 0.66 mL/cm^3 per min | BPND, VND method (SV2A [8]; Brainstem): 2.30 ± 0.99 | BPND, VT(CS) method (SV2A [8]; Brainstem): 0.8 ± 0.0 | K1 (SV2A [8]; Brainstem): 1.37 ± 1.26 mL/cm^3 per min | BPND, VND method (SV2A [8]; Caudate): 6.23 ± 2.96 | BPND, VT(CS) method (SV2A [8]; Caudate): 3.0 ± 0.4 | K1 (SV2A [8]; Caudate): 0.95 ± 0.49 mL/cm^3 per min | BPND, VND method (SV2A [8]; Cerebellum): 4.74 ± 1.81 | BPND, VT(CS) method (SV2A [8]; Cerebellum): 2.2 ± 0.2 | K1 (SV2A [8]; Cerebellum): 0.88 ± 0.41 mL/cm^3 per min | BPND, VND method (SV2A [8]; Cingulate cortex): 9.04 ± 3.59 | BPND, VT(CS) method (SV2A [8]; Cingulate cortex): 4.5 ± 0.4 | BPND, VND method (SV2A [8]; Frontal cortex): 8.64 ± 3.59 | BPND, VT(CS) method (SV2A [8]; Frontal cortex): 4.3 ± 0.6 | K1 (SV2A [8]; Frontal cortex): 0.79 ± 0.39 mL/cm^3 per min | BPND, VND method (SV2A [8]; Globus pallidus): 3.42 ± 1.90 | BPND, VT(CS) method (SV2A [8]; Globus pallidus): 1.4 ± 0.3 | K1 (SV2A [8]; Globus pallidus): 0.73 ± 0.49 mL/cm^3 per min | in vivo Kd ratio, Kd(tracer)/Kd([^18F]SDM-16) (SV2A [8]; Guo plot of baseline VT): 0.41 | BPND, VND method (SV2A [8]; Hippocampus): 5.19 ± 2.56 | BPND, VT(CS) method (SV2A [8]; Hippocampus): 2.4 ± 0.4 | K1 (SV2A [8]; Hippocampus): 0.68 ± 0.34 mL/cm^3 per min | BPND, VND method (SV2A [8]; Insular cortex): 8.41 ± 3.27 | BPND, VT(CS) method (SV2A [8]; Insular cortex): 4.2 ± 0.3 | K1 (SV2A [8]; Insular cortex): 0.93 ± 0.48 mL/cm^3 per min | K1 (SV2A [8]; Mean ± SD over brain regions): 0.91 ± 0.28 mL/cm^3 per min | BPND, VND method (SV2A [8]; Nucleus accumbens): 8.41 ± 3.54 | BPND, VT(CS) method (SV2A [8]; Nucleus accumbens): 4.1 ± 0.4 | K1 (SV2A [8]; Nucleus accumbens): 0.99 ± 0.63 mL/cm^3 per min | BPND, VND method (SV2A [8]; Occipital cortex): 7.61 ± 2.51 | BPND, VT(CS) method (SV2A [8]; Occipital cortex): 3.9 ± 0.2 | K1 (SV2A [8]; Occipital cortex): 0.88 ± 0.47 mL/cm^3 per min | BPND, VND method (SV2A [8]; Putamen): 6.41 ± 2.96 | BPND, VT(CS) method (SV2A [8]; Putamen): 2.9 ± 0.4 | K1 (SV2A [8]; Putamen): 1.25 ± 0.82 mL/cm^3 per min | BPND, VND method (SV2A [8]; Temporal cortex): 7.36 ± 2.64 | BPND, VT(CS) method (SV2A [8]; Temporal cortex): 3.7 ± 0.3 | K1 (SV2A [8]; Temporal cortex): 0.74 ± 0.34 mL/cm^3 per min | BPND, VND method (SV2A [8]; Thalamus): 6.59 ± 3.72 | BPND, VT(CS) method (SV2A [8]; Thalamus): 2.9 ± 0.7 | K1 (SV2A [8]; Thalamus): 0.93 ± 0.71 mL/cm^3 per min | fraction unbound [9]: 0.101

lutidine
pKa exp. [10]: 6.77
